Here are results for 14 compounds from ChEMBL document CHEMBL1147840, “Synthesis and bioactivity of 4-alkyl(aryl)thioquinazoline derivatives” (Bioorg Med Chem Lett, 2007).

Common to all, as to assay type: functional, cell-based
Assay [1] relates to Bcap37. Kind of assay: Antitumor activity against human Bcap37 cells by MTT method.
The subject of assay [2] is BGC-823. Kind of assay: Antitumor activity against human BGC823 cells by MTT method. (In general: Tetrazolium dyes change colour on reduction, which living cells bring about.)
Assay [3] deals with PC-3. Kind of assay: Antitumor activity against human PC3 cells by MTT method.

Structures are written as SMILES.

As usually defined, the IC50 is the concentration that inhibits the measured activity by half. Read a high IC50 as a need for much substance. With `COc1cccc(Sc2ncnc3c(OC)c(OC)c(OC)cc23)c1`, the IC50 is 45.6 µM in assay [1], 53.2 µM in assay [2] and 8.1 µM in assay [3].

As for `COc1cc(-c2nnc(Sc3ncnc4c(OC)c(OC)c(OC)cc34)o2)cc(OC)c1OC`, the IC50 is 20.9 µM in assay [1], 39 µM in assay [2] and 1.8 µM in assay [3].

As to `COc1cc(-c2nnc(Sc3ncnc4ccccc34)o2)cc(OC)c1OC`, the IC50 stood at 23.4 µM in assay [1], 34.5 µM in assay [2] and 5.6 µM in assay [3].

`C=CCSc1ncnc2ccccc12`: the IC50 was found to be 67.9 µM in assay [1], 78.1 µM in assay [2] and 48 µM in assay [3].

Turning to `C=CCSc1ncnc2ccc(I)cc12`, the IC50 in assay [1] amounted to 39.1 µM; in assay [2] it was 33.2 µM; in assay [3], 28.8 µM.

For `COc1cc(-c2nnc(Sc3ncnc4c(OC)c(OC)c(OC)cc34)s2)cc(OC)c1OC`, the IC50 in assay [1] was 34.7 µM; in assay [2], 31.2 µM; in assay [3] it was 8.7 µM.

In the case of `COc1cc(-c2nnc(Sc3ncnc4ccccc34)s2)cc(OC)c1OC`, the IC50 in assay [1] turned out to be 50.9 µM; in assay [2], 61.2 µM; in assay [3], 19 µM.

Regarding `CCSc1ncnc2ccc(I)cc12`, the IC50 is 39 µM in assay [1], 31.1 µM in assay [2] and 38.9 µM in assay [3].

Consider `COc1cccc(Sc2ncnc3ccccc23)c1`, for which the IC50 was 56.7 µM in assay [1], 45.6 µM in assay [2] and 23.1 µM in assay [3].

For the compound `CCCCSc1ncnc2ccc(I)cc12`, the IC50 in assay [1] turned out to be 31 µM; in assay [2], 29 µM; in assay [3], 32.1 µM.

`CCCSc1ncnc2ccc(I)cc12`: the IC50 in assay [1] was 42.1 µM; in assay [2] it was 29 µM; in assay [3], 40.9 µM.

With `COc1cc(-c2nnc(Sc3ncnc4ccc(I)cc34)s2)cc(OC)c1OC`, the figures for the IC50 in assay [1], in assay [2] and in assay [3] were 21 µM, 19 µM and 12.2 µM, respectively.

Turning to `COc1cc(-c2nnc(Sc3ncnc4ccc(I)cc34)o2)cc(OC)c1OC`, the IC50 in assay [1] is 31 µM; in assay [2], 28.9 µM; in assay [3], 8.9 µM.

With `COc1cc2ncnc(Nc3cccc(Br)c3)c2cc1OC`, the IC50 in assay [1] was 8.9 µM; in assay [2] it was 6.9 µM; in assay [3], 13.7 µM.
